Assays:
[1] = tested on: VENTURIA INAEQUALS (APPLE); assay: foliar fungal disease control test (Table III); format: in vivo, Venturia inaequalis; conditions: 100 ppm foliar spray plus root drench ca. 40 ppm a.i./dry soil; 1-2 days before inoculation
Experimental: (§1) The compounds were tested against a variety of foliar fungal diseases of plants. The technique employed was as follows.
(§2) The plants were grown in John Innes Potting Compost (No 1 or 2) in 4 cm diameter minipots. The test compounds were formulated either by bead milling with aqueous Dispersol T or as a solution in acetone or acetone/ethanol which was diluted to the required concentration immediately before use. For the foliage diseases, the formulations (100 ppm active ingredient) were sprayed on to the foliage and applied to the roots of the plants in the soil. The sprays were applied to maximum retention and the root drenches to a final concentration equivalent to approximately 40 ppm a.i./dry soil. Tween 20, to give a final concentration of 0.05%, was added when the sprays were applied to cereals.
(§3) For most of the tests the compound was applied to the soil (roots) and to the foliage (by spraying) one or two days before the plant was inoculated with the disease. An exception was the test on Erysiphe graminis in which the plants were inoculated 24 hours before treatment. Foliar pathogens were applied by spray as spore suspensions onto the leaves of test plants. After inoculation, the plants were put into an appropriate environment to allow infection to proceed and then incubated until the disease was ready for assessment. The period between inoculation and assessment varied from four to fourteen days according to the disease and environment.
(§4) The disease control was recorded by the following grading: […]

[2] = tested on: PH[…] (TOMATO); format: in vivo, Phytophthora infestans; conditions: for disease control grading, PH[…] (TOMATO): 100 ppm foliar spray plus root drench ca. 40 ppm a.i./dry soil, 1-2 days before inoculation
[3] = tested on: […] (VINE); assay: foliar fungal disease control test (Table III); format: in vivo, Plasmopara viticola; conditions: 100 ppm foliar spray plus root drench ca. 40 ppm a.i./dry soil; 1-2 days before inoculation
Experimental: as §1, §2, §3, §4

[4] = tested on: ERYSIPHE GRAMINIS (BARLEY); assay: foliar fungal disease control test (Table III); format: in vivo; conditions: 100 ppm foliar spray plus root drench ca. 40 ppm a.i./dry soil; inoculated 24 hours before treatment
Experimental: as §1, §2, §3, §4

[5] = tested on: PUCCINIA RECONDITA (WHEAT); assay: foliar fungal disease control test (Table III); format: in vivo; conditions: 100 ppm foliar spray plus root drench ca. 40 ppm a.i./dry soil; 1-2 days before inoculation
Experimental: as §1, §2, §3, §4

[6] = tested on: CERCOSPORA ARACHIDICOLA (PEANUT); assay: foliar fungal disease control test (Table III); format: in vivo; conditions: 100 ppm foliar spray plus root drench ca. 40 ppm a.i./dry soil; 1-2 days before inoculation
Experimental: as §1, §2, §3, §4

[7] = tested on: […] (RICE); format: in vivo, Pyricularia oryzae; conditions: 100 ppm foliar spray plus root drench ca. 40 ppm a.i./dry soil; 1-2 days before inoculation
[8] = tested on: Meloidogyne incognita (tomato root-knot eelworm larvae); assay: nematocidal activity
[9] = tested on: Tomato; assay: whole plant screen for plant growth regulating activity; format: in vivo, Tomato (Ailsa Craig)
Experimental: (§5) These compounds were tested on a whole plant screen for plant growth regulating activity against six species of plant. The plant species used in this screen are presented in Table IV with the leaf stage at which they were sprayed.
(§6) A formulation of each chemical was applied at 4000 ppm (4 kg/ha in a 1000 l/ha field volume) using a tracksprayer and a SS8004E (Teejet) nozzle. Additional tests were done on tomatoes at 2000 and 500 ppm.
(§7) After spraying, the plants were grown in a glasshouse with 25° C. day/22° C. night temperatures. The exceptions to this were the temperate cereals wheat and barley, which were grown in 13°-16° C. day/11°-13° C. night temperatures. Supplementary lighting was supplied when necessary to provide an average photoperiod of 16 hours (14 hours minimum).
(§8) After 2-6 weeks in the glasshouse, depending on species and time of year, the plants were visually asessed for morphological characteristics against a control plant sprayed with a blank formulation.

[10] = tested on: Diabrotica balteata (root worm larvae); assay: insecticidal activity
[11] = tested on: Barley; assay: whole plant screen for plant growth regulating activity; format: in vivo, Barley (Atem); conditions: 4000 ppm (4 kg/ha), assessed after 2-6 weeks
Experimental: as §5, §6, §7, §8

| SMILES | disease control grading, VENTURIA INAEQUALS (APPLE) [1] | disease control grading, PH[…] (TOMATO) [2] | disease control grading, […] (VINE) [3] | disease control grading, ERYSIPHE GRAMINIS (BARLEY) [4] | disease control grading, PUCCINIA RECONDITA (WHEAT) [5] | disease control grading, CERCOSPORA ARACHIDICOLA (PEANUT) [6] | disease control grading, […] (RICE) [7] | disease control grading, PH[…] (TOMATO), root drench only ([2]; 100 ppm root drench only) | activity against Meloidogyne incognita [8] | plant growth regulating effect, TO ([9]; 4000 ppm (4 kg/ha), assessed after 2-6 weeks) [GAT] | activity against Diabrotica balteata [10] | plant growth regulating effect, TO+ ([9]; 500 ppm) [G] | plant growth regulating effect, BR [11] [T] |
| --- | --- | --- | --- | --- | --- | --- | --- | --- | --- | --- | --- | --- | --- |
| CO/C=C(/C(=O)OC)c1ncccc1Oc1ccccc1 [Compound 1, (E)-methyl 2-(3'-phenoxypyrid-2'-yl)-3-methoxyacrylate] | 3 (trace-5% of disease on untreated plants) | 0 (60-100% of disease on untreated plants) | 0 (60-100% of disease on untreated plants) | 3 (trace-5% of disease on untreated plants) | 0 (60-100% of disease on untreated plants) | 4 | 0 (60-100% of disease on untreated plants) |  |  |  |  |  |  |
| CO/C=C(/C(=O)OC)c1cccnc1Oc1ccccc1 [Compound 15, (E)-methyl-2-(2'-phenoxypyrid-3'-yl)-3-methoxyacrylate] | 4 |  | 4 | 4 | 4 | 4 | 4 | 4 | active |  |  |  |  |
| CO/C=C(/C(=O)OC)c1cccnc1Oc1ccc(Cl)cc1 [Compound 16] | 4 | 3 (trace-5% of disease on untreated plants) | 4 | 4 | 4 | 4 | 4 |  |  |  |  |  |  |
| CO/C=C(/C(=O)OC)c1cccnc1Oc1ccc(Br)cc1 [Compound 18] | 4 | 0 (60-100% of disease on untreated plants) | 4 | 4 | 1 (26-59% of disease on untreated plants) | 4 | 0 (60-100% of disease on untreated plants) |  |  |  |  |  |  |
| CO/C=C(/C(=O)OC)c1cccnc1Oc1ccc(C)cc1 [Compound 19] | 4 | 0 (60-100% of disease on untreated plants) | 4 | 4 | 4 | 4 | 4 |  |  | 2 |  |  |  |
| CO/C=C(/C(=O)OC)c1cccnc1Oc1ccc(OC)cc1 [Compound 20] | 4 | 0 (60-100% of disease on untreated plants) | 4 | 4 | 4 | 4 | 4 |  |  |  |  |  |  |
| CO/C=C(/C(=O)OC)c1cccnc1Oc1ccc(C(F)(F)F)cc1 [Compound 21] | 4 | 3 (trace-5% of disease on untreated plants) | 4 | 4 | 4 | 4 | 0 (60-100% of disease on untreated plants) |  |  |  |  |  |  |
| CO/C=C(/C(=O)OC)c1cccnc1Oc1cccc(Cl)c1 [Compound 23] | 4 | 4 | 4 | 4 | 4 | 4 | 4 |  |  |  | active | 2 |  |
| CO/C=C(/C(=O)OC)c1ccncc1Oc1ccccc1 [Compound 43, (E)-methyl-2-(3'-phenoxypyrid-4'-yl)-3-methoxyacrylate] |  |  |  |  |  |  |  |  |  |  |  |  | 2 |
| CO/C=C(/C(=O)OC)c1cccnc1Oc1cccc(F)c1 [Compound 57] | 4 | 3 (trace-5% of disease on untreated plants) | 4 | 4 | 4 | 4 | 4 |  |  |  |  |  |  |
| CO/C=C(/C(=O)OC)c1cccnc1Oc1cccc(C)c1 [Compound 58] | 4 | 3 (trace-5% of disease on untreated plants) | 4 | 4 | 4 | 4 | 4 |  |  |  |  |  |  |
| CO/C=C(/C(=O)OC)c1cccnc1Oc1cc(Cl)cc(Cl)c1 [Compound 60] | 4 | 4 | 4 | 4 | 4 | 4 | 4 |  |  |  |  |  |  |
| CO/C=C(/C(=O)OC)c1cccnc1OCc1ccccc1 [Compound 66] | 4 | 0 (60-100% of disease on untreated plants) | 2 (6-25% of disease on untreated plants) | 4 | 0 (60-100% of disease on untreated plants) | 1 (26-59% of disease on untreated plants) | 0 (60-100% of disease on untreated plants) |  |  |  |  |  |  |
| CO/C=C(/C(=O)OC)c1cccnc1Oc1ccc(F)cc1F [Compound 87] | 4 | 0 (60-100% of disease on untreated plants) | 0 (60-100% of disease on untreated plants) | 4 | 3 (trace-5% of disease on untreated plants) | 4 | 4 |  |  |  |  |  |  |
| CO/C=C(/C(=O)OC)c1cccnc1Oc1cc(F)cc(F)c1 [Compound 88] | 4 | 4 | 4 | 4 | 4 | 3 (trace-5% of disease on untreated plants) | 2 (6-25% of disease on untreated plants) |  |  |  |  |  |  |
| CO/C=C(/C(=O)OC)c1ccccn1 [Compound 106] | 0 (60-100% of disease on untreated plants) |  | 0 (60-100% of disease on untreated plants) | 4 | 0 (60-100% of disease on untreated plants) | 0 (60-100% of disease on untreated plants) | 0 (60-100% of disease on untreated plants) |  |  |  |  |  |  |
